Reference: PubChem BioAssay AID2060599 (Molecular Pharmacology Branch, DTP, NCI, 2025)
pIC50: −log10 of the molar value.

Tested on: 817829-284-R-J1-PDC complex spheroids, viability
Assay: Anticancer human tumor 817829-284-R-J1-PDC patient-derived colon adenocarcinoma cell line growth inhibition [CLK]
Settings: for pIC50: curve of first compound; for viability, T/C: stronger effect = lower value; active = viability on the fitted dose curve at most 10% of control; inactive = the rest
Procedure, shortened: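 Patient-derived tumor cells grown as complex spheroids with HUVEC endothelial cells and mesenchymal stem cells, treated with drug combinations. Concentrations descend in half-log steps from near clinical Cmax, or from 10 microM if Cmax unknown.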

[1] = second compound 0.0316 µM, first compound 0.0316 µM
[2] = second compound 0.0316 µM, first compound 0.1 µM
[3] = second compound 0.0316 µM, first compound 0.316 µM
[4] = second compound 0.0316 µM, first compound 1 µM
[5] = second compound 0.0316 µM, first compound 3.16 µM
[6] = second compound 0.0316 µM, first compound 10 µM
[7] = second compound 0.1 µM, first compound 0.0316 µM
[8] = second compound 0.1 µM, first compound 0.1 µM
[9] = second compound 0.1 µM, first compound 0.316 µM
[10] = second compound 0.1 µM, first compound 1 µM
[11] = second compound 0.1 µM, first compound 3.16 µM
[12] = second compound 0.1 µM, first compound 10 µM
[13] = second compound 0.316 µM, first compound 0.0316 µM
[14] = second compound 0.316 µM, first compound 0.1 µM
[15] = second compound 0.316 µM, first compound 0.316 µM
[16] = second compound 0.316 µM, first compound 1 µM
[17] = second compound 0.316 µM, first compound 3.16 µM
[18] = second compound 0.316 µM, first compound 10 µM
[19] = second compound 1 µM, first compound 0.0316 µM
[20] = second compound 1 µM, first compound 0.1 µM
[21] = second compound 1 µM, first compound 0.316 µM
[22] = second compound 1 µM, first compound 1 µM
[23] = second compound 1 µM, first compound 3.16 µM
[24] = second compound 1 µM, first compound 10 µM
[25] = second compound 3.16 µM, first compound 0.0316 µM
[26] = second compound 3.16 µM, first compound 0.1 µM
[27] = second compound 3.16 µM, first compound 0.316 µM
[28] = second compound 3.16 µM, first compound 1 µM
[29] = second compound 3.16 µM, first compound 3.16 µM
[30] = second compound 3.16 µM, first compound 10 µM
[31] = second compound 10 µM, first compound 0.0316 µM
[32] = second compound 10 µM, first compound 0.1 µM
[33] = second compound 10 µM, first compound 0.316 µM
[34] = second compound 10 µM, first compound 1 µM
[35] = second compound 10 µM, first compound 3.16 µM
[36] = second compound 10 µM, first compound 10 µM
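Also: spheroids exposed to the agents for seven days before readout.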

COc1ccc([C@@H](O)c2cc(-c3ncnc4cc(N5CCOCC5)ccc34)c(F)cc2Cl)nn1 + CN1CCN(c2cc(C(=O)Nc3cc4cc(-c5cnn(C)c5)ccc4cn3)ccn2)CC1
inactive: viability, T/C [1] 79.8% | viability, T/C [2] 69% | viability, T/C [3] 59.6% | viability, T/C [4] 29.3% | viability, T/C [5] 19.4% | viability, T/C [6] 10.3% | viability, T/C [7] 15.4% | viability, T/C [8] 17.1% | viability, T/C [9] 14.9% | viability, T/C [10] 13% | viability, T/C [11] 11.8%
active: viability, T/C [12] 6.42% | viability, T/C [13] 1.6% | viability, T/C [14] 2.02% | viability, T/C [15] 2.05% | viability, T/C [16] 1.33% | viability, T/C [17] 1% | viability, T/C [18] 0.54% | viability, T/C [19] 0.08% | viability, T/C [20] 0.13% | viability, T/C [21] 0.1% | viability, T/C [22] 0.06% | viability, T/C [23] 0.1% | viability, T/C [24] 0.07% | viability, T/C [25] 0.14% | viability, T/C [26] 0.14% | viability, T/C [27] 0.19% | viability, T/C [28] 0.11% | viability, T/C [29] 0.13% | viability, T/C [30] 0.16% | viability, T/C [31] 0.09% | viability, T/C [32] 0.06% | viability, T/C [33] 0.13% | viability, T/C [34] 0.08% | viability, T/C [35] 0.15% | viability, T/C [36] 0.12%
> 7.50: pIC50 (second compound 0.1 µM) | pIC50 (second compound 0.316 µM) | pIC50 (second compound 1 µM) | pIC50 (second compound 3.16 µM) | pIC50 (second compound 10 µM)
6.37: pIC50 (second compound 0.0316 µM)

COc1cccc2c1C(=O)c1c(O)c3c(c(O)c1C2=O)CC(O)(C(=O)CO)CC3OC1CC(N)C(O)C(C)O1 (centres undefined) + CN1CCN(c2cc(C(=O)Nc3cc4cc(-c5cnn(C)c5)ccc4cn3)ccn2)CC1
> 7.50: pIC50 (second compound 0.0316 µM) | pIC50 (second compound 0.1 µM) | pIC50 (second compound 0.316 µM) | pIC50 (second compound 1 µM) | pIC50 (second compound 3.16 µM) | pIC50 (second compound 10 µM)
inactive: viability, T/C [1] 19.4% | viability, T/C [2] 15.6% | viability, T/C [7] 18.2% | viability, T/C [8] 13.4%
active: viability, T/C [3] 3.99% | viability, T/C [4] 0.16% | viability, T/C [5] 0.37% | viability, T/C [6] 1.02% | viability, T/C [9] 2.32% | viability, T/C [10] 0.22% | viability, T/C [11] 0.51% | viability, T/C [12] 0.96% | viability, T/C [13] 1.68% | viability, T/C [14] 0.69% | viability, T/C [15] 0.24% | viability, T/C [16] 0.33% | viability, T/C [17] 0.63% | viability, T/C [18] 0.97% | viability, T/C [19] 0.12% | viability, T/C [20] 0.29% | viability, T/C [21] 0.26% | viability, T/C [22] 0.59% | viability, T/C [23] 0.53% | viability, T/C [24] 0.72% | viability, T/C [25] 0.14% | viability, T/C [26] 0.16% | viability, T/C [27] 0.24% | viability, T/C [28] 0.38% | viability, T/C [29] 0.38% | viability, T/C [30] 0.06% | viability, T/C [31] 0.04% | viability, T/C [32] 0.07% | viability, T/C [33] 0.11% | viability, T/C [34] 0.06% | viability, T/C [35] 0.1% | viability, T/C [36] 0.08%
